How the values were obtained:
[1] = system: imine reductase derived from Streptomyces sp. GF3546; assay: Substrate specificity of imine reductase: NADPH/NADH-dependent imine-reducing activity (decrease in absorbance at 340 nm); type: biochemical
Experimental: A reaction mixture containing the enzyme, 100 mM potassium phosphate buffer (pH 7.0), 0.2 mM NADPH, and 10 mM 2-methyl-1-pyrrolin was incubated at 30° C. The reaction mixture was assayed to determine the decrease in absorbance at 340 nm due to the decrease of NADPH. The amount of enzyme that catalyzes the decrease of 1 μmol of NADPH per minute was defined as 1 U.
(§1) The enzyme prepared as described in Example 4 was incubated with various imine compounds.

[2] = system: imine reductase derived from Streptomyces sp. GF3546; assay: Substrate specificity of imine reductase: NADP+-dependent amine-oxidizing activity (increase in absorbance at 340 nm); type: biochemical; conditions: oxidation, substrate 10 mM, coenzyme NADP+
Experimental: A reaction mixture containing 100 mM glycine/potassium chloride/potassium hydroxide buffer 10.5, 2.5 mM NADP^+, 10 mM (S)-2-methylpyrrolidine, and the enzyme was incubated at 30° C. The reaction mixture was assayed to determine the increase in absorbance at 340 nm due to the increase of NADPH. The amount of enzyme that catalyzes the increase of 1 μmol of NADPH per minute was defined as 1 U.
as §1

[3] = substrate 10 mM, coenzyme NADPH, activity of reducing 2-methyl-1-pyrroline taken as 100
[4] = first % column, activity of reducing 2-methyl-1-pyrroline taken as 100
[5] = second % column, (S)-2-methylpyrrolidine = 100.0

| Structure (SMILES) | Relative activity [2, 4] [%] | Relative activity [2, 5] [%] | Relative activity [1, 3] [%] | also measured |
| --- | --- | --- | --- | --- |
| CC(=Nc1ccccc1)c1ccccc1 (mixture of isomers) [N-((E/Z)-N-(1-phenylethylidene)aniline] |  |  | 5.3 |  |
| COc1cc2c(cc1OC)C(C)=NCC2 [1-Methyl-6,7-dimethoxy-3,4-dihydroisoquinoline] |  |  |  | Relative activity ([1]; substrate 0.05 mM, coenzyme NADPH, activity of reducing 2-methyl-1-pyrroline taken as 100): 8.9% |
| CC1=NCCC1 [2-Methyl-1-pyrroline] |  |  | 100.0 | Relative activity ([1]; substrate 10 mM, coenzyme NADH, activity of reducing 2-methyl-1-pyrroline (NADPH) taken as 100): 0.0% |
| C(=NCc1ccccc1)c1ccccc1 [N-Benzylidenebenzylamine] |  |  | 20.9 |  |

Now from value to compound, other results behind:

| Relative activity [2, 4] [%] | Relative activity [2, 5] [%] | Structure (SMILES) | Relative activity [1, 3] [%] | also measured |
| --- | --- | --- | --- | --- |
| 7.7 | 17.4 | C[C@@H]1CCCN1 [(R)-2-Methylpyrrolidine] |  |  |
| 44.1 | 100.0 | C[C@H]1CCCN1 [(S)-2-Methylpyrrolidine] |  |  |

Source: patent publication US20110262977A1, “PROCESS FOR PRODUCTION OF OPTICALLY ACTIVE AMINE DERIVATIVE” (Daicel Chemical Industries, Ltd., priority 2008, published 2011)
